Laboratory results reported in patent US20040242591A1, “Oxazolidinone derivatives as pontential antimicrobials” (priority 2001, published 2004).

Tests used:
S.aureus ATCC 25923 = assay: MIC by agar incorporation method, S.aureus 25923; format: cell-based, Staphylococus aureus; parameters: unit not given here; conditions: Mueller Hinton agar, 10^4 CFU/spot, 18 hours
MRSA 15187 = assay: MIC by agar incorporation method, MRSA 15187; format: cell-based, Methicillin Resistant Staphylococcus aureus; parameters: unit not given here; conditions: Mueller Hinton agar, 10^4 CFU/spot, 24 hours
Text: 2) MRSA 15187—Methicillin Resistant Staphylococcus aureus

MRSA 562 = assay: MIC by agar incorporation method, MRSA 562; format: cell-based, Methicillin Resistant Staphylococcus aureus; parameters: unit not given here; conditions: Mueller Hinton agar, 10^4 CFU/spot, 24 hours
MRSA 33 = assay: MIC by agar incorporation method, MRSA 33; format: cell-based, Methicillin Resistant Staphylococcus aureus; parameters: unit not given here; conditions: Mueller Hinton agar, 10^4 CFU/spot, 24 hours
Ent. faecalis ATCC 29212 = assay: MIC by agar incorporation method, E.faecalis 29212; format: cell-based, Enterococcus faecalis; parameters: unit not given here; conditions: Mueller Hinton agar, 10^4 CFU/spot, 18 hours
Text: 3) Ent. faecalis ATCC 29212—Enterococcus faecalis ATCC 29212

VRE 6A = assay: MIC by agar incorporation method, VRE 6A; format: cell-based, Enterococcus faecium; parameters: unit not given here; conditions: Mueller Hinton agar, 10^4 CFU/spot, 18 hours
Text: 4) Ent. faecium […]—Enterococcus faecium 6A Van®, Cipro®

Strep.pyog. ATCC 19615 = assay: MIC by agar incorporation method, S.pyogenes 19615; format: cell-based, Streptococcus pyogenes; parameters: unit not given here; conditions: Mueller Hinton agar, 10^4 CFU/spot, 18 hours
Text: 6) Strep.pyog. ATCC 19615—Streptococcus pyogenes

Strep. pne. ATCC 6303 = assay: MIC by agar incorporation method, S. pneum 6303; format: cell-based, Streptococcus pneumoniae; conditions: Mueller Hinton agar, 10^4 CFU/spot, 18 hours
Text: 5) Strep. pne. ATCC 6303—Streptococcus pneumoniae ATCC 6303

S. pneum AB 34 = assay: MIC by agar incorporation method, S. pneum AB 34; format: cell-based, Streptococcus pneumoniae; parameters: unit not given here; conditions: Mueller Hinton agar, 10^4 CFU/spot, 18 hours

Compound	In Vitro (MIC) S.aureus 25923 (S.aureus ATCC 25923)	In Vitro (MIC) MRSA 15187 (MRSA 15187)	In Vitro (MIC) MRSA 562 (MRSA 562)	In Vitro (MIC) MRSA 33 (MRSA 33)	In Vitro (MIC) E.faecalis 29212 (Ent. faecalis ATCC 29212)	In Vitro (MIC) VRE 6A (VRE 6A)	In Vitro (MIC) S.pyogenes 19615 (Strep.pyog. ATCC 19615)	In Vitro (MIC) S. pneum 6303 (Strep. pne. ATCC 6303) [µg/mL]	In Vitro (MIC) S. pneum AB 34 (S. pneum AB 34)
CC(=O)NC[C@H]1CN(c2ccc(N3CCCN(C(=O)c4ccc([N+](=O)[O-])s4)CC3)c(F)c2)C(=O)O1 [Compound No. 54, (S)-N-[[3-[3-Fluoro-4-[N-1-[4-{2-thiophenoyl-(5-nitro)}]homopiperazinyl]phenyl]-2-oxo-5-oxazolidinyl]methyl]acetamide]	1	0.5	0.5	0.5	1	0.5	0.25	8	8
CC(=O)NC[C@H]1CN(c2ccc(N3CCN(C(=O)c4ccc([N+](=O)[O-])o4)CC3C)c(F)c2)C(=O)O1 (stereo partly drawn) [Compound No. 59, (S)-N-[[3-[3-Fluoro-4-[N-1-[2-methyl-4-{2furoyl-(5-nitro)}]-piperazinyl]phenyl]-2-oxo-5-oxazolidinyl]methyl]acetamide]	2	1	1	1	1	2	8	8	8
CC(=O)NC[C@H]1CN(c2ccc(N3CCN(Cc4cc([N+](=O)[O-])cn4C)CC3)c(F)c2)C(=O)O1 [Compound No. 11]	4	4	4	4	4	4	2	2	4
CC(=O)NC[C@H]1CN(c2ccc(N3CCN(Cc4cc([N+](=O)[O-])cs4)CC3)c(F)c2)C(=O)O1 [Compound No. 14, (S)-N-[[3-[3-Fluoro-4-[N-1-[4-{2-thiophen-(4-nitro-)methyl-}]piperazinyl]phenyl]-2-oxo-5-oxazolidinyl]methyl]acetamide]	0.25	0.25	0.25	0.25	4	2	0.5	2	1
CC(=O)NC[C@H]1CN(c2ccc(N3CCN(Cc4cc(Br)c([N+](=O)[O-])s4)CC3)c(F)c2)C(=O)O1 [Compound No. 4]	2	1	1	2	2	2	4	4	4
CC(=O)NC[C@H]1CN(c2ccc(N3CCN(C(=O)c4ccc([N+](=O)[O-])s4)CC3C)c(F)c2)C(=O)O1 (stereo partly drawn) [Compound No. 60, (S)-N-[[3-[3-Fluoro-4-[N-1-[2-methyl-4-{2-thiophenoyl-(5-nitro)}]-piperazinyl]phenyl]-2-oxo-5-oxazolidinyl]methyl]acetamide]	0.25	<0.125	<0.125	<0.125	1	1	0.5	4	4
CC(=O)NC[C@H]1CN(c2ccc(N3CCN(C(=O)c4ccc([N+](=O)[O-])o4)CC3)c(F)c2)C(=O)O1 [Compound No. 39, (S)-N-[[3-[3-Fluoro-4-[N-1-[4-{2-Furoyl-(5-nitro)acylic}]piperazinyl]phenyl]-2-oxo-5-oxazolidinyl]methyl]-acetamide]	0.5	0.5	0.25	0.25	0.5	<0.125	<0.125	0.5	4
CCN(Cc1ccc([N+](=O)[O-])s1)C1CCN(c2ccc(N3C[C@H](CNC(C)=O)OC3=O)cc2F)CC1 [Compound No. 83, (S)-N-[[3-[3-Fluoro-4-[4-{N-ethyl-N-2-thiophenyl-(5-nitro)methyl}-aminopiperidine-1-yl]phenyl]-2-oxo-5-oxazolidinyl]methyl]acetamide]	4	4	4	4	4	4	8	8	8

Further lines, results first:

In Vitro (MIC) S.aureus 25923 (S.aureus ATCC 25923)	In Vitro (MIC) MRSA 15187 (MRSA 15187)	In Vitro (MIC) MRSA 562 (MRSA 562)	In Vitro (MIC) MRSA 33 (MRSA 33)	In Vitro (MIC) E.faecalis 29212 (Ent. faecalis ATCC 29212)	In Vitro (MIC) VRE 6A (VRE 6A)	In Vitro (MIC) S.pyogenes 19615 (Strep.pyog. ATCC 19615)	In Vitro (MIC) S. pneum 6303 (Strep. pne. ATCC 6303) [µg/mL]	In Vitro (MIC) S. pneum AB 34 (S. pneum AB 34)	Compound
8	8	4	4	8	4	4	8	16	CC(=O)NC[C@H]1CN(c2ccc(N3CCN(Cc4coc([N+](=O)[O-])c4)CC3)c(F)c2)C(=O)O1 [Compound No. 8, (S)-N-[[3-[3-Fluoro-4-[N-1-[4-{3-furyl(5-nitro)methyl}]piperazinyl]phenyl]-2-oxo-5-oxazolidinyl]methyl]acetamide]
<0.25	0.5	<0.25	<0.25	2	1	<0.25	4	4	CC(=O)NC[C@H]1CN(c2ccc(N3CCN(C(=O)c4ccc([N+](=O)[O-])s4)C(C)C3)c(F)c2)C(=O)O1 (stereo partly drawn) [Compound No. 70, (S)-N-[[3-[3-Fluoro-4-[N-1-[3-methyl-4-{2-thienoyl-(5-nitro)}]-piperazinyl]phenyl]-2-oxo-5-oxazolidinyl]methyl]acetamide]
2	0.5	1	2	0.25	0.25	4	8	8	CC(=O)NC[C@H]1CN(c2ccc(N3CCCN(C(=O)c4ccc([N+](=O)[O-])o4)CC3)c(F)c2)C(=O)O1 [Compound No. 55, (S)-N-[[3-[3-Fluoro-4-[N-1-[4-{2-furoyl-(5-nitro)}]homopiperazinyl]phenyl]-2-oxo-5-oxazolidinyl]methyl]acetamide]
2	1	1	1	2	4	1	4	4	CC(=O)NC[C@H]1CN(c2ccc(N3CCC(CN(C)Cc4ccc([N+](=O)[O-])o4)CC3)c(F)c2)C(=O)O1 [Compound No. 93]
2	1	2	2	2	2	0.5	2	2	CC(=O)NC[C@H]1CN(c2ccc(N3CCN(Cc4cc(Br)c([N+](=O)[O-])o4)CC3)c(F)c2)C(=O)O1 [Compound No. 25, (S)-N-[[3-[3-Fluoro-4[N-1-[4-{2-Furyl-4-bromo-(nitro)methyl}]piperazinyl]-phenyl]-2-oxo-5-oxazolidinyl]methyl]acetamide]
2	2	2	2	1	2	1	2	2	CC(=O)NC[C@H]1CN(c2ccc(N3CCC(NCc4ccc([N+](=O)[O-])s4)CC3)c(F)c2)C(=O)O1 [Compound No. 84, (S)-N-[[3-[3-Fluoro-4-[4-{N-thienyl-(5-nitro)methyl}-aminopiperidine-1-yl]phenyl]-2-oxo-5-oxazolidinyl]methyl]acetamide]
8	4	4	4	4	4	0.5	0.5	1	CC(=O)NC[C@H]1CN(c2ccc(N3CCN(C(=O)c4ccc(NC(C)=O)s4)CC3)c(F)c2)C(=O)O1 [Compound No. 29, (S)-N-[[3-[3-Fluoro-1-[N-1-[4-{2-thiophenoyl-(5-acetamido)}]piperazinyl]phenyl]-2-oxo-5-oxazolidinyl]methyl]acetamide]
